Reference: patent US7741283B2, “Compositions and methods for inhibiting cell proliferation” (St. Louis University, priority 2003, dated 2010)
Where “and” joins values, the source holds several entries; their conditions need not be identical. Equal values may be shown once.

Tests used:
Mv1Lu cells [1] = test: [methyl-3H] thymidine incorporation (DNA synthesis), Mv1Lu cells; assay type: cell-based, mink; conditions: IGFBP-3 0.5 μg/ml, Mv1Lu
Mv1Lu cells [2] = test: Cell growth (cell number), Mv1Lu cells; assay type: cell-based, mink; conditions: IGFBP-3 0.5 μg/ml, 4-day
Protocol: FIG. 6 depicts the effects of IGFBP-3 and TGF-β1 on DNA synthesis (A), cell growth (B) and PAI-1 expression (C) in Mv1Lu and PEA-C11 cells. (A,B) Cells were incubated with various concentrations of IGFBP-3 (a) or TGF-β1 (b) as indicated. DNA synthesis and cell growth were determined by measuring the [methyl-^3H] thymidine incorporation into cellular DNA after 18 hr incubation (A) and by counting cell number after a 4-day incubation (B), respectively. The [methyl-^3H] thymidine incorporation in cells treated without IGFBP-3 and TGF-β1 (29,170±1,657 and 59,947±7,692 cpm/well for Mv1Lu and PEA-C11 cells, respectively) were taken as 0% inhibition. […] Each data point is the mean±S.D. of quadruplicate determinations. […] Data are representative of eight similar experiments. (C) Cells were incubated with various concentrations of TGF-β1 as indicated. After 2 hr at 37° C., the PAI-1 expression was determined by Northern blot analysis. The expression of glyceraldehyde-3-phosphate dehydrogenase (G3PDH) was used as control. The relative levels of the transcripts were quantified by a Phospholmager. Data are representative of four similar experiments.
Cells were plated at a density of 1-2×10^4 cells/dish in DMEM containing 1% fetal calf serum. The cell number was counted every day or after a 3-day incubation using a hematocytometer. The assays were performed in quadruplicate.

H1299/LRP cells = test: Cell growth (cell number), H1299/LRP cells; assay type: cell-based, human; conditions: TGF-β1 20 pM or IGFBP-3 1 μg/ml, 3-day
DR26 cells = test: [methyl-3H] thymidine incorporation, DR26 cells; assay type: cell-based, mink; conditions: IGFBP-3 0.5 μg/ml, DR26
Protocol: (A,B) DR26 cells were incubated with various concentrations as indicated of IGFBP-3 in the absence (A) and presence (B) of various concentrations of insulin. After 18 hr at 37° C., the [methyl-^3H] thymidine incorporation into cellular DNA was determined. (C,D,E) Mv1Lu, DR26 and R1B cells metabolically labeled with ^[…]-orthophosphate for 2 hr were treated with IGFBP-3 (1:g/ml) or insulin (10 nM) (C). DR26 cells metabolically labeled with ^[…]-orthophosphate for 2 hr were treated with or without IGFBP-3 (1 μg/ml) in the presence of various concentrations of TGF-β1 as indicated (D). Mv1Lu cells expressing αIβI and αIβII chimeric receptors (MB102-16 and MB102-9 cells, respectively) metabolically labeled with ^[…]-orthophosphate for 2 hr were treated with or without IGFBP-3 (1 μg/ml) or GM-CSF (1 nM) (E). After 2 hr at 37° C. (in the absence of […]-orthophosphate in the medium), the ^[…]-labeled IRS-2 was immunoprecipitated and analyzed by 7.5% SDS-PAGE and autoradiography. […]
Mv1Lu cells were plated on 24-well clustered dishes and incubated with various concentrations of TGF-β1 or IGFBP-3 in DMEM containing 0.1% fetal calf serum. After incubation at 37° C. for 18 hr, the cells were pulse-labeled with 1 μCi of [methyl-^3H]thymidine at 37° C. for 2 hr and the [methyl-^3H] thymidine incorporation into cellular DNA was determined as described previously (59). […]

IRS-2 [3] = test: 32P metabolic labeling and immunoprecipitation of IRS-2, Mv1Lu cells; assay type: cell-based, mink
IRS-2 [4] = test: 32P metabolic labeling and immunoprecipitation of IRS-2, DR26 cells; assay type: cell-based, mink; conditions: IGFBP-3 1 μg/ml
32D/IRS-1 cells = test: [methyl-3H] thymidine incorporation, 32D/IRS-1 cells; assay type: cell-based, murine; conditions: 32D cells expressing IRS-1
32D/IR/IRS-2 cells = test: [methyl-3H] thymidine incorporation, 32D/IR/IRS-2 cells; assay type: cell-based, murine; conditions: 32D cells expressing IRS-2 and insulin receptor
acidic pH binding sites = acidic pH binding sites (Neogale vison, UniProt A0A8C7BSJ2); test: Specific binding of 125I-ligands to Mv1Lu cells at acidic pH; parameters: species or system mink; conditions: Mv1Lu cells; EGTA/BAPTA- or GST-RAP-sensitive binding, 0° C.
R1B cells = conditions: IGFBP-3 0.5 μg/ml; cited from earlier work

Sequence of acidic pH binding sites (A0A8C7BSJ2 entry or part of it): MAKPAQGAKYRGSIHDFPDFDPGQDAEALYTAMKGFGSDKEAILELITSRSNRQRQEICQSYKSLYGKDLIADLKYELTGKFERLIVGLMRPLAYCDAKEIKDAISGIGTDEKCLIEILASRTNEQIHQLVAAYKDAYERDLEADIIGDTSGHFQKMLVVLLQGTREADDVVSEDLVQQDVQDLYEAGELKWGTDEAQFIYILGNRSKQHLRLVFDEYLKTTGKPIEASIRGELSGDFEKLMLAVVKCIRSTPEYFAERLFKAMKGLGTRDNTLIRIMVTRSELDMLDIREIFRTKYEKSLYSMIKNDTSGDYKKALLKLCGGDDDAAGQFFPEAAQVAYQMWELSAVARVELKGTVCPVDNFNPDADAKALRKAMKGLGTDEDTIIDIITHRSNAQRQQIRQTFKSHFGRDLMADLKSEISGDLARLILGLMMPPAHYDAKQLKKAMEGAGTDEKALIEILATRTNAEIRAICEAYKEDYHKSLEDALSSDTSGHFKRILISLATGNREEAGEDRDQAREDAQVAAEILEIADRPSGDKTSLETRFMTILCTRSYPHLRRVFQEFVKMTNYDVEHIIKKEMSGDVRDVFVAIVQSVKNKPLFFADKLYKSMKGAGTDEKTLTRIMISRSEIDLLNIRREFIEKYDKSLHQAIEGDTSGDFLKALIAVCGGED

With “IGFBP-3: human insulin-like growth factor binding protein-3 expressed in E. Coli” the “Inhibition of DNA synthesis” value (Mv1Lu cells [1]) was ~30% and 30-50%, the “Inhibition of cell growth” value (Mv1Lu cells [2]) was about 70% and the “Effect on cell growth” value (H1299/LRP cells) was “inhibited”. For the same substance, the “Inhibition of DNA synthesis” value (DR26 cells) was about 80%, the “Incubation time after which mobility change of 32P-labeled IRS-2 occurred” value (IRS-2 [3]; IGFBP-3 1 μg/ml, Mv1Lu) was 0.5 h and the “Half-optimal concentration (ED50) to induce electrophoretic mobility change of 32P-labeled IRS-2” value (IRS-2 [3]; Mv1Lu cells) was 0.1 to 0.3 µg/mL. For the same substance, the “Induction of specific dephosphorylation (mobility change) of 32P-labeled IRS-2” value (IRS-2 [3]; Mv1Lu, IGFBPs 1 μg/ml, TGF-β1 20 pM) was “induces specific dephosphorylation”, the “Electrophoretic mobility change of IRS-2 compared with Mv1Lu and R1B cells” value (IRS-2 [4]) was “induced a greater increase in electrophoretic mobility” and the “Growth inhibitory response (DNA synthesis)” value (32D/IRS-1 cells) was “potent growth inhibitory response”. The “Growth inhibitory response (DNA synthesis)” value (32D/IR/IRS-2 cells) was “potent growth inhibitory response”, the “pH of optimal/maximal binding” value (acidic pH binding sites) was 5 and the “Inhibition of DNA synthesis” value (R1B cells) was 30-50%.
